This is an account of results in patent US7622491B2, “Modulators of PPAR and methods of their preparation” (Metabolex Inc., priority 2004, dated 2009).

Where two headings read alike, the source gives them in different places. Bounds are passed on as bounds.

Format in all cases: cell-based
Test [1] addresses T1, mouse PPAR δ (Mus musculus, UniProt P35396).
T1 construct: expressed in transfected cells; host or cells: HEK293T
T1 sequence (P35396 210-438 limits assumed): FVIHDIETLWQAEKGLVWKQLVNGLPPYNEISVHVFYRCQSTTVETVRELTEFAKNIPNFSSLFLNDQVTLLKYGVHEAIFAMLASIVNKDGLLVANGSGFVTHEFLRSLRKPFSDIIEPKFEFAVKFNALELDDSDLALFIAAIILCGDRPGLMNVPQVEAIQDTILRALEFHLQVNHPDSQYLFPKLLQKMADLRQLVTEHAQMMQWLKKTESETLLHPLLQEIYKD
The experiment in a line: PPAR δ transactivation (GAL4 chimeric receptor luciferase reporter) assay. The note with it: GAL4-mPPAR δ chimeric receptor, pFR-Luc reporter, HEK293T cells, 20 hours incubation. The text has this: (§1) Chimeric receptors were constructed in which the yeast transcription factor GAL4 DNA binding domain was fused to the ligand binding domain of either mouse PPARγ, mouse PPAR δ or mouse PPAR α in order to assess the ability of the compounds of the present invention to activate gene expression in a PPAR-dependent manner. The chimeric receptor expression plasmids (GAL4-mPPARγ, GAL4-mPPAR δ and GAL4-PPAR α) and the reporter plasmid containing 5×GAL4 binding site (pFR-Luc, obtained from Stratagene) were transfected into HEK293T cells using the Lipofectamine 2000 reagent (Invitrogen), according to the manufacturers instructions. Six hours after transfection, the culture medium was renewed and the cells were incubated for 20 hours in presence of either 1) DMSO (vehicle), 2) a compound of the invention or 3) a reference compound for comparison. Rosiglitazone (obtained from WDF Pharma) was used as a reference compound for the PPARγ assay; GW501516 (prepared as described in Sznaidman et al. Bioorg. Med. Chem. Lett. (2003) 13:1517-1521) was used as a reference compound for the PPAR δ assay and GW7647 (obtained from Sigma) was used as a reference compound for the PPAR α assay. Luciferase activity was measured as a reporter of gene expression. Luciferase activity on the cell lysates using the Steady-Glo reagent was measured according to the manufacturers instructions.

The target in test [2] is T2, mouse PPAR α (Mus musculus, UniProt P23204).
T2 construct: expressed in transfected cells; host or cells: HEK293T
T2 sequence (P23204 239-466 limits assumed): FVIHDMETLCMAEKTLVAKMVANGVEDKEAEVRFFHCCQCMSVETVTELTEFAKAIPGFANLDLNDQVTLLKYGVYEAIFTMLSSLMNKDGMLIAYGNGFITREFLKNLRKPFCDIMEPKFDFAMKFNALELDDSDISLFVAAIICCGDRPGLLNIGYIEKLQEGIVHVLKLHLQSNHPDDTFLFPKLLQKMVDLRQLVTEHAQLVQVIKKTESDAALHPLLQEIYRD
In words: PPAR α transactivation (GAL4 chimeric receptor luciferase reporter) assay.
Excerpt: as §1

In test [3] the target is T3, mouse PPARγ (Mus musculus, UniProt P37238).
T3 construct: expressed in transfected cells; host or cells: HEK293T
T3 sequence (P37238 238-503 limits assumed): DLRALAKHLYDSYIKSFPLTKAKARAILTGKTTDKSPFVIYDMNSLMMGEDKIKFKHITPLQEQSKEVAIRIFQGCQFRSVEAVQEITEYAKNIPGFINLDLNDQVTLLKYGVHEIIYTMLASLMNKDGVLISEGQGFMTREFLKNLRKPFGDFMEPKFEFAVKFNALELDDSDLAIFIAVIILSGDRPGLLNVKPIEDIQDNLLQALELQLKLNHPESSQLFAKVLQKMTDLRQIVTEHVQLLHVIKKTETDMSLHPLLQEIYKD
In words: PPARγ transactivation (GAL4 chimeric receptor luciferase reporter) assay. The conditions noted are these: GAL4-mPPARγ chimeric receptor, pFR-Luc reporter, HEK293T cells, 20 hours incubation.
Excerpt: as §1

Where [4] appears, read: pFR-Luc reporter, HEK293T cells, 20 hours incubation.
The mark [5] stands for this setting: read-out: Gene Activation Assay: EC50 (≦10 μM) PPAR alpha, pFR-Luc reporter, HEK293T cells, 20 hours incubation.

Turning to `Cc1cc(SCCCOc2ccc(Br)cc2-c2nc3ccccc3o2)ccc1OCC(=O)O` [Compound 300, {4-[3-(2-Benzooxazol-2-yl-4-bromo-phenoxy)-propylsulfanyl]-2-methyl-phenoxy}-acetic acid], the EC50 in test [1], in test [2] (setting [4]) and in test [3] was no more than 10 µM each time.

Regarding `Cc1cc(SCCOc2ccc(Cl)cc2-n2nc3ccccc3n2)ccc1OCC(=O)O` [Compound 400, {4-[2-(2-Benzotriazol-2-yl-4-chloro-phenoxy)-ethylsulfanyl]-2-methyl-phenoxy}-acetic acid], the EC50 was no more than 10 µM in test [1], greater than 10 µM in test [2] (setting [5]) and no more than 10 µM in test [3].

For `O=C(O)Cc1ccc(OCCCOc2ccc(Cl)cc2-n2nc3ccccc3n2)cc1` [Compound 500, {4-[3-(2-Benzotriazol-2-yl-4-chloro-phenoxy)-propoxy]-phenyl}-acetic acid], the EC50 in test [1], in test [2] (setting [4]) and in test [3] was no more than 10 µM in each case.

As to `CCCc1cc(CC(=O)O)ccc1OCCCOc1ccc(Cl)cc1-n1nc2ccccc2n1` [Compound 600, {4-[3-(2-Benzotriazol-2-yl-4-chloro-phenoxy)-propoxy]-3-propyl-phenyl}-acetic acid], the EC50 in test [1], in test [2] (setting [4]) and in test [3] was no more than 10 µM throughout.

With `O=C(O)Cc1ccc(OCCOc2ccc(Cl)cc2-n2nc3ccccc3n2)cc1` [Compound 800, {4-[2-(2-Benzotriazol-2-yl-4-chloro-phenoxy)-ethoxy]-phenyl}-acetic acid], the 50% effective concentration (EC50) in test [1] was no more than 10 µM; in test [2] (setting [5]), greater than 10 µM; in test [3] it was no more than 10 µM.

In the case of `CCCc1cc(CC(=O)O)ccc1OCCOc1ccc(Cl)cc1-n1nc2ccccc2n1` [Compound 900, {4-[2-(2-Benzotriazol-2-yl-4-chloro-phenoxy)-ethoxy]-3-propyl-phenyl}-acetic acid], the EC50 was no more than 10 µM in test [1], greater than 30 µM in test [2] (setting [4]) and no more than 10 µM in test [3].

Turning to `O=C(O)Cc1ccc(OCCCOc2ccc(Cl)cc2-n2nc3c(n2)CCCC3)cc1` [Compound 1200, (4-{3-[4-Chloro-2-(4,5,6,7-tetrahydro-benzotriazol-2-yl)-phenoxy]-propoxy}-phenyl)-acetic acid], the EC50 in test [1], in test [2] (setting [4]) and in test [3] was no more than 10 µM throughout.

With `O=C(O)Cc1ccc(OCCCOc2ccc(Cl)cc2C#Cc2ccccc2)cc1` [Compound 1300, {4-[3-(4-Chloro-2-phenylethynyl-phenoxy)-propoxy]-phenyl}-acetic acid], the values for the EC50 in test [1], in test [2] (setting [5]) and in test [3] were no more than 10 µM, greater than 10 µM and no more than 10 µM, respectively.

On to `COc1cccc(C#Cc2cc(Cl)ccc2OCCCOc2ccc(CC(=O)O)cc2)c1` [Compound 1400, (4-{3-[4-Chloro-2-(3-methoxy-phenylethynyl)-phenoxy]-propoxy}-phenyl)-acetic acid], for which the figures for the EC50 in test [1], in test [2] (setting [5]) and in test [3] were no more than 10 µM, greater than 10 µM and no more than 10 µM, respectively.

For `O=C(O)Cc1ccc(OCCCOc2ccc(Cl)cc2C#Cc2ccccn2)cc1` [Compound 1500, {4-[3-(4-Chloro-2-pyridin-2-ylethynyl-phenoxy)-propoxy]-phenyl}-acetic acid], the EC50 in test [1] is no more than 10 µM; in test [2] (setting [5]), greater than 10 µM; in test [3] it was no more than 10 µM.

`Cc1cccc2nn(-c3cc(Cl)ccc3OCCCOc3ccc(CC(=O)O)cc3)nc12` [Compound 1600, (4-{3-[4-Chloro-2-(4-methyl-benzotriazol-2-yl)-phenoxy]-propoxy}-phenyl)-acetic acid]: the EC50 in test [1], in test [2] (setting [4]) and in test [3] was no more than 10 µM in each case.

Turning to `O=C(O)Cn1ncc2cc(OCCCOc3ccc(Cl)cc3-n3nc4ccccc4n3)ccc21` [Compound 1700, {5-[3-(2-Benzotriazol-2-yl-4-chloro-phenoxy)-propoxy]-indazol-1-yl}-acetic acid], the EC50 in test [1] was no more than 10 µM; in test [2] (setting [4]), greater than 30 µM; in test [3], no more than 10 µM.

Consider `O=C(O)Cn1ccc2cc(OCCCOc3ccc(Cl)cc3-n3nc4ccccc4n3)ccc21` [Compound 1800, {5-[3-(2-Benzotriazol-2-yl-4-chloro-phenoxy)-propoxy]-indol-1-yl}-acetic acid], for which the EC50 in test [1] was no more than 10 µM; in test [2] (setting [5]) it was greater than 10 µM; in test [3], no more than 10 µM.

In the case of `O=C(O)Cn1ccc2cc(OCCOc3ccc(Cl)cc3-n3nc4ccccc4n3)ccc21` [Compound 1900, {5-[2-(2-Benzotriazol-2-yl-4-chloro-phenoxy)-ethoxy]-indol-1-yl}-acetic acid], the EC50 in test [1] is no more than 10 µM; in test [2] (setting [5]) it was greater than 10 µM; in test [3], no more than 10 µM.
